Source: US8598168B2 (MethylGene Inc., priority 2006, dated 2013)

Legend:
[1] = tested on: p21 promoter-driven luciferase in HCT116 cells; experiment: p21WAF1/Cip1 Assay (p21 promoter-driven luciferase reporter); type: cell-based, human; conditions: 16 hours treatment, value designated as reference
Procedure: HCT116 cells were stably transfected with reporter plasmids encoding the p21 promoter-driven luciferase. Cells were treated with indicated concentration of HDAC inhibitors for 16 hours before cells were harvested and luciferase activity analyzed. The effective concentration (EC) of MS-275 was designated as 1 μM. The ability of HDAC inhibitor was compared with that of MS-275 (T. Suzuki, et. al J. Med. Chem., 1999, 3001-3003).

[2] = target: HDAC-1 (Homo sapiens, UniProt Q13547); experiment: Inhibition of Histone Deacetylase Enzymatic (HDAC-1) Activity; type: biochemical; conditions: Table 21
Procedure: The following protocol was used to assay the compounds of the invention.
The mixture was pre-incubated for 5 minutes at room temperature. The reaction was started by bringing the temperature to 37° C. and adding 15 μl substrate. Total reaction volume was 50 μl.

[3] = tested on: human colon cancer HCT116 cells; experiment: MTT Assay; type: cell-based; conditions: HCT-116, 72 hours, Table 21
Procedure: Compounds at various concentrations were added to human colon cancer HCT116 cells plated in 96-well plates. Cells were incubated for 72 hours at 37° C. in 5% CO2 incubator. MTT (3-[4,5-dimethylthiazol-2-yl]-2,5 diphenyl tetrazolium bromide, Sigma) was added at a final concentration of 0.5 mg/ml and incubated with the cells for 4 hours before an equal volume of solubilization buffer (50% N,N-dimethylformamide, 20% SDS, pH 4.7) was added onto cultured cells. After overnight incubation, solubilized dye was quantified by colorimetric reading at […] using a reference at 630 nM. OD values were converted to cell numbers according to a standard growth curve of the relevant cell line. The concentration which reduces cell numbers to 50% of those of DMSO-treated cells is determined as MTT IC50.

[4] = Log D (comparison with previously disclosed compounds); type: physicochemical; conditions: pH 7.4

HDAC-1, sequence (Q13547 whole entry): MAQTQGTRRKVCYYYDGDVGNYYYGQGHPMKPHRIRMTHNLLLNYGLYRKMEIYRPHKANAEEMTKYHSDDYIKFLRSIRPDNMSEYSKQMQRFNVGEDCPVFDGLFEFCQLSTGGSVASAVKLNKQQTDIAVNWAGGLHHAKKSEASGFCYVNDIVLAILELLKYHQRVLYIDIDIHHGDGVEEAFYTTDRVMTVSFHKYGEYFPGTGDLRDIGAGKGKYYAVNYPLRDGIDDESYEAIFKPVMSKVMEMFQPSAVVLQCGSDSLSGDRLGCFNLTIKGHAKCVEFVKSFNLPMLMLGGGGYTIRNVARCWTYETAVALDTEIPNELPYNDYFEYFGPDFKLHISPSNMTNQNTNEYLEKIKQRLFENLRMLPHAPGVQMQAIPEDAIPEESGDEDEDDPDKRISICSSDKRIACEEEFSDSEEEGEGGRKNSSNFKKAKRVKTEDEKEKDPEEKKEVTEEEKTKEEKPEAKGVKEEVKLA

Compound	effective concentration (EC) to induce p21 expression [1] [µM]	IC50 [2] [µM]	IC50 [3] [µM]	logD [4]
Nc1ccccc1NC(=O)c1ccc(CNC(=O)OCc2cccnc2)cc1 [MS-275]	1			
Nc1ccc(-c2cccs2)cc1NC(=O)c1ccc(CN2CCN(C3CCCC3)CC2)cc1 [compound 16, N-(2-amino-5-(thiophen-2-yl)phenyl)-4-((4-cyclopentylpiperazin-1-yl)methyl)benzamide]		< 1	< 1	3.3
CN(C)[C@H]1CC(=O)N(Cc2ccc(C(=O)Nc3cc(-c4cccs4)ccc3N)cc2)C1=O [compound 242, (S)—N-(2-Amino-5-(thiophen-2-yl)phenyl)-4-((3-(dimethylamino)-2,5-dioxopyrrolidin-1-yl)methyl)benzamide]		< 1	1 to 5	1.81
CC(C)N1CCN(c2ccc(C(=O)Nc3cc(-c4cccs4)ccc3N)cc2)CC1 [compound 102, N-(2-amino-5-(thiophen-2-yl)phenyl)-4-(4-isopropyl-piperazin-1-yl)benzamide]		< 1	< 1	1.52
CN(C)CCN(C)Cc1ccc(C(=O)Nc2cc(-c3cccs3)ccc2N)cc1 [compound 18, N-(2-amino-5-(thiophen-2-yl)phenyl)-4-(((2-(dimethylamino)ethyl)(methyl)amino)methyl)benzamide]		< 1	< 1	1.64
CN(C)CCOC(=O)NCc1ccc(C(=O)Nc2cc(-c3cccs3)ccc2N)cc1 [compound 221, 2-(Dimethylamino)ethyl 4-(2-amino-5-(thiophen-2-yl)phenylcarbamoyl)benzylcarbamate]		< 1	< 1	1.85
CN1CCN(Cc2ccc(C(=O)Nc3cc(-c4cccs4)ccc3N)cc2)CC1 [compound 78, N-(2-amino-5-(thiophen-2-yl)phenyl)-4-((4-methylpiperazin-1-yl)methyl)-benzamide]		< 1	< 1	2.29
